# Test results: patent US20220125051A1, “PRE-HARVEST DESICCATION METHOD” (SYNGENTA CROP PROTECTION AG, priority 2019, published 2022)
# Read-outs that look alike come from different tables or passages of the source.
# Experiments:
# Assay in all cases: Post-emergence efficacy, Method A
# Assay type in all cases: in vivo
# [1] = test system: Echinochloa crus-galli (ECHCG); conditions: Echinochloa crus-galli, post-emergence, 312 h, evaluated after 13 days
# Method in brief: (§1)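 Sow in standard soil; grow 14 d under glasshouse control (24/16 °C, 14 h light, 65% humidity). Spray post-emergence with compound formulated in acetone/IF50, diluted in Empicol ESC70 (0.25% or 1%) + 1% ammonium sulphate. Return to glasshouse, water twice daily, score at 13 d on a 0–100 damage scale.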
# [2] = test system: Euphorbia heterophylla (EPHHL); conditions: Euphorbia heterophylla, post-emergence, 312 h, evaluated after 13 days
# Method in brief: as §1
# Setaria faberi (SETFA) = conditions: Setaria faberi, post-emergence, 312 h, evaluated after 13 days
# Method in brief: as §1
# [3] = test system: Digitaria sanguinalis (DIGSA); conditions: Digitaria sanguinalis, post-emergence, 312 h, evaluated after 13 days
# Method in brief: as §1
# Lolium perenne (LOLPE) = conditions: Lolium perenne, post-emergence, 312 h, evaluated after 13 days
# Method in brief: as §1
# [4] = test system: Ipomoea hederacea (IPOHE); conditions: Ipomoea hederacea, post-emergence, 312 h, evaluated after 13 days
# Method in brief: as §1
# Eleusine indica (ELEIN) = conditions: Eleusine indica, post-emergence, 312 h, evaluated after 13 days
# Method in brief: as §1
# [5] = test system: Chenopodium album (CHEAL); conditions: Chenopodium album, post-emergence, 312 h, evaluated after 13 days
# Method in brief: as §1
# [6] = test system: Amaranthus palmeri (AMAPA); conditions: Amaranthus palmeri, post-emergence, 312 h, evaluated after 13 days
# Method in brief: as §1
# [7] = Application Rate 500 g/Ha, Method A, read-out: Control of weed species after post-emergence application, ECHCG (100=total damage to plant; 0=no damage to plant)
# [8] = Application Rate 500 g/Ha, Method A, read-out: Control of weed species after post-emergence application, EPHHL (100=total damage to plant; 0=no damage to plant)
# [9] = Application Rate 500 g/Ha, Method A, read-out: Control of weed species after post-emergence application, SETFA (100=total damage to plant; 0=no damage to plant)
# [10] = Application Rate 500 g/Ha, Method A, read-out: Control of weed species after post-emergence application, DIGSA (100=total damage to plant; 0=no damage to plant)
# [11] = Application Rate 500 g/Ha, Method A, read-out: Control of weed species after post-emergence application, LOLPE (100=total damage to plant; 0=no damage to plant)
# [12] = Application Rate 500 g/Ha, Method A, read-out: Control of weed species after post-emergence application, IPOHE (100=total damage to plant; 0=no damage to plant)
# [13] = Application Rate 500 g/Ha, Method A, read-out: Control of weed species after post-emergence application, ELEIN (100=total damage to plant; 0=no damage to plant)
# [14] = Application Rate 500 g/Ha, Method A, read-out: Control of weed species after post-emergence application, CHEAL (100=total damage to plant; 0=no damage to plant)
# [15] = Application Rate 500 g/Ha, Method A, read-out: Control of weed species after post-emergence application, AMAPA (100=total damage to plant; 0=no damage to plant)
# [16] = Application rate 500 g/Ha, 100=total damage to plant, 0=no damage to plant, read-out: Control of weed species after post-emergence application, ECHCG
# [17] = Application rate 500 g/Ha, 100=total damage to plant, 0=no damage to plant, read-out: Control of weed species after post-emergence application, EPHHL
# [18] = Application rate 500 g/Ha, 100=total damage to plant, 0=no damage to plant, read-out: Control of weed species after post-emergence application, SETFA
# [19] = Application rate 500 g/Ha, 100=total damage to plant, 0=no damage to plant, read-out: Control of weed species after post-emergence application, DIGSA
# [20] = Application rate 500 g/Ha, 100=total damage to plant, 0=no damage to plant, read-out: Control of weed species after post-emergence application, LOLPE
# [21] = Application rate 500 g/Ha, 100=total damage to plant, 0=no damage to plant, read-out: Control of weed species after post-emergence application, IPOHE
# [22] = Application rate 500 g/Ha, 100=total damage to plant, 0=no damage to plant, read-out: Control of weed species after post-emergence application, ELEIN
# [23] = Application rate 500 g/Ha, 100=total damage to plant, 0=no damage to plant, read-out: Control of weed species after post-emergence application, CHEAL
# [24] = Application rate 500 g/Ha, 100=total damage to plant, 0=no damage to plant, read-out: Control of weed species after post-emergence application, AMAPA
SMILES,"pest or weed control at 500 g/ha [1, 7]","pest or weed control at 500 g/ha [2, 8]",pest or weed control at 500 g/ha (Setaria faberi (SETFA); [9]),"pest or weed control at 500 g/ha [3, 10]",pest or weed control at 500 g/ha (Lolium perenne (LOLPE); [11]),"pest or weed control at 500 g/ha [4, 12]",pest or weed control at 500 g/ha (Eleusine indica (ELEIN); [13]),"pest or weed control at 500 g/ha [5, 14]","pest or weed control at 500 g/ha [6, 15]","pest or weed control at 500 g/ha [1, 16]","pest or weed control at 500 g/ha [2, 17]",pest or weed control at 500 g/ha (Setaria faberi (SETFA); [18]),"pest or weed control at 500 g/ha [3, 19]",pest or weed control at 500 g/ha (Lolium perenne (LOLPE); [20]),"pest or weed control at 500 g/ha [4, 21]",pest or weed control at 500 g/ha (Eleusine indica (ELEIN); [22]),"pest or weed control at 500 g/ha [5, 23]","pest or weed control at 500 g/ha [6, 24]"
CC(C(=O)OC(C)(C)C)[n+]1ccc(-c2ncccn2)cn1 (stereo not drawn) [Compound A193],10%,60%,10%,30%,10%,30%,30%,60%,70%,,,,,,,,,
COc1cnc(-c2cc[n+](CCS(=O)(=O)[O-])nc2)nc1 [Compound A14],,,,,,,,,,60%,20%,60%,90%,40%,40%,90%,60%,80%
CCOP(=O)(CCC[n+]1ccc(-c2ncccn2)cn1)OCC [Compound A204],0%,0%,0%,0%,0%,0%,0%,20%,10%,,,,,,,,,
COC(=O)C(C)[n+]1ccc(-c2ncccn2)cn1 (stereo not drawn) [Compound A192],30%,40%,20%,30%,10%,30%,30%,60%,90%,,,,,,,,,
Cc1nc(-c2cc[n+](CCS(=O)(=O)[O-])nc2)ncc1Cl [Compound A99],,,,,,,,,,50%,90%,50%,40%,20%,30%,80%,30%,80%
N#Cc1ccnc(-c2cc[n+](CCCS(=O)(=O)[O-])nc2)n1 [Compound A147],,,,,,,,,,30%,70%,40%,20%,40%,60%,20%,50%,40%
Cc1cnc(-c2cc[n+](CCS(=O)(=O)[O-])nc2)nc1C [Compound A97],,,,,,,,,,90%,70%,90%,90%,70%,30%,90%,20%,90%
Cc1cc(Cl)cnc1-c1cc[n+](CCS(=O)(=O)[O-])nc1 [Compound A103],,,,,,,,,,30%,50%,10%,20%,10%,30%,30%,50%,0%
CCOC(=O)CC[n+]1ccc(-c2ncccn2)cn1 [Compound A82],,,,,,,,,,30%,40%,60%,30%,0%,20%,60%,80%,70%
O=C(O)C(O)C[n+]1ccc(-c2ccncn2)cn1 (stereo not drawn) [Compound A190],60%,80%,40%,60%,40%,70%,70%,80%,100%,,,,,,,,,
COC(=O)c1cnc(-c2cc[n+](CCS(=O)(=O)[O-])nc2)nc1 [Compound A33],,,,,,,,,,40%,60%,60%,60%,50%,40%,80%,80%,100%
O=C(O)CC[n+]1ccc(-c2ncc(C(F)(F)F)cn2)cn1 [Compound A129],,,,,,,,,,90%,70%,60%,60%,80%,10%,40%,50%,70%
O=C(O)CC[n+]1ccc(-c2ncccc2Cl)cn1 [Compound A149],,,,,,,,,,50%,30%,40%,50%,40%,10%,60%,40%,30%
CCOC(=O)CC[n+]1ccc(-c2ccccn2)cn1 [Compound A91],,,,,,,,,,60%,40%,60%,50%,20%,20%,60%,20%,40%
O=C(O)CC[n+]1ccc(-c2cncc(C(F)(F)F)n2)cn1 [Compound A120],,,,,,,,,,40%,50%,40%,40%,20%,10%,30%,70%,90%
O=S(=O)([O-])CC[n+]1ccc(-c2ncc(Cl)cc2Cl)cn1 [Compound A142],,,,,,,,,,40%,60%,30%,40%,10%,20%,60%,20%,10%
